The text below walks through data of patent publication US20080233562A1, “Method of Estimating Antitumor Effect of Histone Deacetylase Inhibitor” (Astellas Pharma Inc., priority 2003, published 2008).

For one data set, the system named is human kidney cancer ACHN. The data set is described as follows: Antitumor effect on human kidney cancer ACHN tumor fragment implanted s.c. in nude mice. Type of data set: in vivo.
A short description of data set [1]: Maximum tolerated dose, intravenous administration to nude mice. The following applies: mouse, in vivo, i.v. On the procedure: The administration was started on the day of grouping (Day 0). FK228 was intravenously administered to an FK228 administration group 3 times every 4 days (q4d×3) (3.2 and 1.8 mg/kg). Paclitaxel (24 mg/kg) was intravenously administered for 5 consecutive days (qd×5) to a positive control substance Paclitaxel administration group. Only a solvent (10% HCO-60/saline) was administered (q4d×3) to a control group. The amount of liquid for each administration was calculated (0.1 mL/10 g body weight) based on the body weight measured on the administration day. Note that 3.2 mg/kg/day (q4d×3) of FK228 and 24 mg/kg/day (qd×5) of Paclitaxel were the maximum tolerated doses (MTD) thereof.

Data set [2] has as its system human prostate cancer PC-3. The data set is described as follows: Antitumor effect on human prostate cancer PC-3 tumor fragment implanted s.c. in nude mice. Type of data set: in vivo.
Description: A necessary amount of FK228 was weighed and a solvent (10% HCO-60/saline) was added. The mixture was sonicated to allow for dissolution. A positive control substance Paclitaxel was dissolved in Cremophor EL/ethanol (1:1) solution to 24 mg/mL prior to the testing, and preserved in a refrigerator. When in use, it was diluted with a 9-fold amount of physiological saline to 2.4 mg/mL (solvent component: 5% Cremophor EL-5% ethanol-90% saline).
(§3) For antitumor test of the pharmaceutical agent, BALB/cANnNCrj-nu/nu mice (male, 6-week-old) were purchased from Charles River Japan and, after acclimation for not less than one week, used for the test. The mice were reared under an SPF environment and allowed a free access to water and feed.
A grown solid tumor was subcultured for not less than 3 generations and used for the test.
(§4) A solid tumor subcultured in a nude mouse was subcutaneously implanted in the right back of a mouse as an about 3 mm square tumor tissue fragment. […]
(§5) The administration was started on the day of grouping (Day 0). […] The amount of liquid for each administration was calculated (0.1 mL/10 g body weight) based on the body weight measured on the administration day.
(§6) The tumor size (longer diameter, shorter diameter) and body weight were measured twice a week from Day 0.
(§7) The level of tumor growth was evaluated based on the tumor growth rate (Relative Tumor Volume). […]
For the next data set, the system named is human kidney cancer A498. Kind of data set: Antitumor effect on human kidney cancer A498 tumor fragment implanted s.c. in nude mice. It is filed as in vivo. Conditions: 3.2 mg/kg i.v. The source says: (§1) A solid tumor subcultured in a nude mouse was subcutaneously implanted in the right back of a mouse as an about 3 mm square tumor tissue fragment. After the tumor implantation, when the tumor volume (½×longer diameter×shorter diameter^2) reached 100-300 mm^3, the mice were grouped into 6 mice per group to level the tumor size.
human kidney cancer A498; obtained from ATCC (tumor fragment 3 mm×3 mm×3 mm/mouse implantation site s.c.)
(§2) By the method shown in Example 1, 3 mm square tumor fragments (human prostate cancer PC-3, human stomach cancer SC-6, human kidney cancer ACHN and human kidney cancer A498) were subcutaneously implanted in nude mice, and when the tumor volume (long diameter 9 mm, short diameter 8 mm) reached about 100-300 mm^3, FK228 (3.2 mg/kg) was intravenously administered. The tumor growth suppressing rates then were 98%, 84%, 20% and 29%, respectively.

In data set [3] the test system is human stomach cancer SC-6. The data set is described as follows: Antitumor effect on human stomach cancer SC-6 tumor fragment implanted s.c. in nude mice. It is filed as in vivo. Conditions: SC-6 s.c. in nude mice, 3.2 mg/kg i.v.
Text: as §1
human gastric cancer SC-6; obtained from Central Institute for Experimental Animals (tumor fragment 3 mm×3 mm×3 mm/mouse implantation site s.c.)
as §2

Molecules are shown by their SMILES.

Description for human kidney cancer ACHN: A necessary amount of FK228 was weighed and a solvent (10% HCO-60/saline) was added. The mixture was sonicated to allow for dissolution.
as §3
Cultured human kidney cancer cell line 1 (ACHN: available from ATCC) and human culture prostate cancer cell line 1 (PC-3: available from ATCC) were subcutaneously implanted at 2-3×10^7 cells in a nude mouse. A grown solid tumor was subcultured for not less than 3 generations and used for the test.
as §4, §5, §6, §7

The term MTD denotes the highest dose tested that stayed within the study's limit of toxicity. A lower MTD goes with poorer tolerability. As for `C/C=C1\NC(=O)[C@H]2CSSCC/C=C/[C@H](CC(=O)N[C@H](C(C)C)C(=O)N2)OC(=O)[C@H](C(C)C)NC1=O` [FK228], the “antitumor action (tumor growth rate, Relative Tumor Volume)” value in the data set with human kidney cancer ACHN (ACHN in nude mice, FK228 i.v. q4d×3, FIG. 1(b)) is “did not show an antitumor action”; in data set [2] (PC-3 in nude mice, FK228 3.2 mg/kg i.v. q4d×3, FIG. 1(a)), “strong antitumor action”. Moreover, the “tumor growth suppressing rate” value with human kidney cancer ACHN (ACHN s.c. in nude mice, 3.2 mg/kg i.v.) is listed as 20%; in data set [2] (PC-3 s.c. in nude mice, 3.2 mg/kg i.v.) it was 98%; in the data set with human kidney cancer A498, 29%; in data set [3], 84%. Further, the MTD in data set [1] (q4d×3, nude mice) was determined as 3.2 mg/kg/day.
Take `CC(=O)O[C@H]1C(=O)[C@@]2(C)[C@H]([C@H](OC(=O)c3ccccc3)[C@]3(O)C[C@H](OC(=O)[C@H](O)[C@@H](NC(=O)c4ccccc4)c4ccccc4)C(C)=C1C3(C)C)[C@]1(OC(C)=O)CO[C@@H]1C[C@@H]2O` [Paclitaxel, reference compound]: in data set [1] (24 mg/kg, qd×5, nude mice), the maximal tolerated dose (MTD) at 5 days is 24 mg/kg/day.
